Measurements: patent US9511073B2, “Aromatic amides and uses thereof” (TAXIS Pharmaceuticals, Inc., priority 2011, dated 2016)
In brackets after ≈: the same amount, converted by molar mass.

What follows are compounds tested on Staphylococcus aureus (Isolate ID ATCC 29213) (assay: Bacterial assay: MIC by broth microdilution or agar dilution (CLSI), S. aureus ATCC 29213). Conditions: Staphylococcus aureus, ATCC29213, read-out: S. aureus MIC (μg/mL) Activity Range, S. aureus (ATCC29213).
Format: cell-based
Procedure, shortened: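 MICs by CLSI broth microdilution or agar dilution against S. aureus ATCC 29213 and its FtsZ-G196A mutant. Values reported as ranges: A ≤0.25 μg/mL, B >0.25–1.0, C >1.0–16, D >16 μg/mL.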

| Structure (SMILES) | MIC [µg/mL] |
| --- | --- |
| NC(=O)c1c(F)ccc(OC(CO)c2nc(-c3ccc(Cl)c(F)c3)c(Br)o2)c1F (stereo not shown) [Compound 225, 3-(1-(5-bromo-4-(4-chloro-3-fluorophenyl)oxazol-2-yl)-2-hydroxyethoxy)-2,6-difluorobenzamide] | 0.25 to 1 (≈ 0.508 to 2.03 µM) |
| NC(=O)c1c(F)ccc(OC(CO)c2nc(-c3ccc(F)cc3F)co2)c1F (stereo not shown) [Compound 226, 3-(1-(4-(2,4-difluorophenyl)oxazol-2-yl)-2-hydroxyethoxy)-2,6-difluorobenzamide] | > 16 |
| COc1cc(Cl)ccc1-c1coc(C(CO)Oc2ccc(F)c(C(N)=O)c2F)n1 (stereo not shown) [Compound 227, 3-(1-(4-(4-chloro-2-methoxyphenyl)oxazol-2-yl)-2-hydroxyethoxy)-2,6-difluorobenzamide] | > 16 |
| COc1ccc(-c2coc(C(CO)Oc3ccc(F)c(C(N)=O)c3F)n2)c(F)c1 (stereo not shown) [Compound 228, 2,6-difluoro-3-(1-(4-(2-fluoro-4-methoxyphenyl)oxazol-2-yl)-2-hydroxyethoxy)benzamide] | > 16 |
| NC(=O)c1c(F)ccc(OC(CO)c2nc(-c3ccccc3F)c(Br)o2)c1F (stereo not shown) [Compound 229, 3-(1-(5-bromo-4-(2-fluorophenyl)oxazol-2-yl)-2-hydroxyethoxy)-2,6-difluorobenzamide] | > 16 |
| COc1ccc(-c2nc(C(CO)Oc3ccc(F)c(C(N)=O)c3F)oc2Br)cn1 (stereo not shown) [Compound 230, 3-(1-(5-bromo-4-(6-methoxypyridin-3-yl)oxazol-2-yl)-2-hydroxyethoxy)-2,6-difluorobenzamide] | 1 to 16 (≈ 2.13 to 34 µM) |
| Cc1ccc(-c2nc(C(CO)Oc3ccc(F)c(C(N)=O)c3F)oc2Br)cn1 (stereo not shown) [Compound 231, 3-(1-(5-bromo-4-(6-methylpyridin-3-yl)oxazol-2-yl)-2-hydroxyethoxy)-2,6-difluorobenzamide] | > 16 |
| COc1cc(Cl)c(Br)cc1-c1nc(C(CO)Oc2ccc(F)c(C(N)=O)c2F)oc1Br (stereo not shown) [Compound 232, 3-(1-(5-bromo-4-(5-bromo-4-chloro-2-methoxyphenyl)oxazol-2-yl)-2-hydroxyethoxy)-2,6-difluorobenzamide] | 1 to 16 (≈ 1.72 to 27.5 µM) |
| COc1ccc(-c2nc(C(CO)Oc3ccc(F)c(C(N)=O)c3F)oc2Br)c(F)c1 (stereo not shown) [Compound 234, 3-(1-(5-bromo-4-(2-fluoro-4-methoxyphenyl)oxazol-2-yl)-2-hydroxyethoxy)-2,6-difluorobenzamide] | 0.25 to 1 (≈ 0.513 to 2.05 µM) |
| NC(=O)c1c(F)ccc(OC(CO)c2nc(-c3ccc(Cl)cc3F)c(Br)o2)c1F (stereo not shown) [Compound 235, 3-(1-(5-bromo-4-(4-chloro-2-fluorophenyl)oxazol-2-yl)-2-hydroxyethoxy)-2,6-difluorobenzamide] | < 0.25 |
| N#Cc1ccc(-c2nc(C(CO)Oc3ccc(F)c(C(N)=O)c3F)oc2Br)s1 (stereo not shown) [Compound 236, 3-(1-(5-bromo-4-(5-cyanothiophen-2-yl)oxazol-2-yl)-2-hydroxyethoxy)-2,6-difluorobenzamide] | 0.25 to 1 (≈ 0.532 to 2.13 µM) |
| NC(=O)c1c(F)ccc(OC(CO)c2nc(-c3ccc(Br)s3)c(Br)o2)c1F (stereo not shown) [Compound 237, 3-(1-(5-bromo-4-(5-bromothiophen-2-yl)oxazol-2-yl)-2-hydroxyethoxy)-2,6-difluorobenzamide] | 0.25 to 1 (≈ 0.477 to 1.91 µM) |
| COc1ccc(-c2nc(C(CO)Oc3ccc(F)c(C(N)=O)c3F)oc2Br)nc1 (stereo not shown) [Compound 238, 3-(1-(5-bromo-4-(5-methoxypyridin-2-yl)oxazol-2-yl)-2-hydroxyethoxy)-2,6-difluorobenzamide] | > 16 |
| Cc1cc(Cl)ccc1-c1nc(C(CO)Oc2ccc(F)c(C(N)=O)c2F)oc1Br (stereo not shown) [Compound 239, 3-(1-(5-bromo-4-(4-chloro-2-methylphenyl)oxazol-2-yl)-2-hydroxyethoxy)-2,6-difluorobenzamide] | < 0.25 |
| Cc1nc(-c2nc(C(CO)Oc3ccc(F)c(C(N)=O)c3F)oc2Br)sc1C (stereo not shown) [Compound 240, 3-(1-(5-bromo-4-(4,5-dimethylthiazol-2-yl)oxazol-2-yl)-2-hydroxyethoxy)-2,6-difluorobenzamide] | > 16 |
| NC(=O)c1c(F)ccc(OC(CO)c2nc(-c3ccc(Cl)nc3)c(Br)o2)c1F (stereo not shown) [Compound 241, 3-(1-(5-bromo-4-(6-chloropyridin-3-yl)oxazol-2-yl)-2-hydroxyethoxy)-2,6-difluorobenzamide] | 1 to 16 (≈ 2.11 to 33.7 µM) |
| COCCOc1ccc(-c2nc(C(CO)Oc3ccc(F)c(C(N)=O)c3F)oc2Br)cc1 (stereo not shown) [Compound 242, 3-(1-(5-bromo-4-(4-(2-methoxyethoxy)phenyl)oxazol-2-yl)-2-hydroxyethoxy)-2,6-difluorobenzamide] | 1 to 16 (≈ 1.95 to 31.2 µM) |
| NC(=O)c1c(F)ccc(OC(CO)c2nc(-c3cccs3)c(Br)o2)c1F (stereo not shown) [Compound 243, 3-(1-(5-bromo-4-(thiophen-2-yl)oxazol-2-yl)-2-hydroxyethoxy)-2,6-difluorobenzamide] | 1 to 16 (≈ 2.25 to 35.9 µM) |
| Cc1ccc(-c2nc(C(CO)Oc3ccc(F)c(C(N)=O)c3F)oc2Br)s1 (stereo not shown) [Compound 244, 3-(1-(5-bromo-4-(5-methylthiophen-2-yl)oxazol-2-yl)-2-hydroxyethoxy)-2,6-difluorobenzamide] | 1 to 16 (≈ 2.18 to 34.8 µM) |

| Structure (SMILES) | MIC [µg/mL] |
| --- | --- |
| Cc1nc(C)c(-c2nc(C(CO)Oc3ccc(F)c(C(N)=O)c3F)oc2Br)s1 (stereo not shown) [Compound 245, 3-(1-(5-bromo-4-(2,4-dimethylthiazol-5-yl)oxazol-2-yl)-2-hydroxyethoxy)-2,6-difluorobenzamide] | > 16 |
| COC(=O)c1ccc(-c2nc(C(CO)Oc3ccc(F)c(C(N)=O)c3F)oc2Br)cc1 (stereo not shown) [Compound 246, methyl 4-(5-bromo-2-(1-(3-carbamoyl-2,4-difluorophenoxy)-2-hydroxyethyl)oxazol-4-yl)benzoate] | 1 to 16 (≈ 2.01 to 32.2 µM) |
| NC(=O)c1c(F)ccc(O[C@H](CO)c2nc(-c3cncs3)c(Br)o2)c1F [Compound 247B, (R)-3-(1-(5-bromo-4-(thiazol-5-yl)oxazol-2-yl)-2-hydroxyethoxy)-2,6-difluorobenzamide] | > 16 |
| NC(=O)c1c(F)ccc(OC(CO)c2nc(-c3ccc(F)c(F)c3)c(Br)o2)c1F (stereo not shown) [Compound 248, 3-(1-(5-bromo-4-(3,4-difluorophenyl)oxazol-2-yl)-2-hydroxyethoxy)-2,6-difluorobenzamide] | 1 to 16 (≈ 2.1 to 33.7 µM) |
| N#Cc1ccc(-c2nc([C@@H](CO)Oc3ccc(F)c(C(N)=O)c3F)oc2Br)cn1 [Compound 249B, (R)-3-(1-(5-bromo-4-(6-cyanopyridin-3-yl)oxazol-2-yl)-2-hydroxyethoxy)-2,6-difluorobenzamide] | 1 to 16 (≈ 2.15 to 34.4 µM) |
| NC(=O)c1c(F)ccc(O[C@H](CO)c2nc(-c3ccc(Cl)s3)c(Br)o2)c1F [Compound 250B, (R)-3-(1-(5-bromo-4-(5-chlorothiophen-2-yl)oxazol-2-yl)-2-hydroxyethoxy)-2,6-difluorobenzamide] | < 0.25 |
| NC(=O)c1c(F)ccc(OC(CO)c2nc(-c3ccc(C(=O)O)cc3)c(Br)o2)c1F (stereo not shown) [Compound 251, 4-(5-bromo-2-(1-(3-carbamoyl-2,4-difluorophenoxy)-2-hydroxyethyl)oxazol-4-yl)benzoic acid] | > 16 |
| CN(C)C(=O)c1ccc(-c2nc(C(CO)Oc3ccc(F)c(C(N)=O)c3F)oc2Br)cc1 (stereo not shown) [Compound 252, 4-(5-bromo-2-(1-(3-carbamoyl-2,4-difluorophenoxy)-2-hydroxyethyl)oxazol-4-yl)-N,N-dimethylbenzamide] | > 16 |
| NC(=O)c1c(F)ccc(O[C@H](CO)c2nc(-c3ccc4c(c3)CCO4)c(Br)o2)c1F [Compound 253B, (R)-3-(1-(5-bromo-4-(2,3-dihydrobenzofuran-5-yl)oxazol-2-yl)-2-hydroxyethoxy)-2,6-difluorobenzamide] | 1 to 16 (≈ 2.08 to 33.2 µM) |
| NC(=O)c1c(F)ccc(O[C@H](CO)c2nc(-c3ccc4occc4c3)c(Br)o2)c1F [Compound 254B, (R)-3-(1-(4-(benzofuran-5-yl)-5-bromooxazol-2-yl)-2-hydroxyethoxy)-2,6-difluorobenzamide] | 1 to 16 (≈ 2.09 to 33.4 µM) |
| NC(=O)c1c(F)ccc(O[C@H](CO)c2nc(-c3ccc(C(=O)N4CCOCC4)cc3)c(Br)o2)c1F [Compound 255B, (R)-3-(1-(5-bromo-4-(4-(morpholine-4-carbonyl)phenyl)oxazol-2-yl)-2-hydroxyethoxy)-2,6-difluorobenzamide] | > 16 |
| NC(=O)c1c(F)ccc(OC(CO)c2nc(-c3ccc(N4CCCC4)c(Br)c3)c(Br)o2)c1F (stereo not shown) [Compound 256, 3-(1-(5-bromo-4-(3-bromo-4-(pyrrolidin-1-yl)phenyl)oxazol-2-yl)-2-hydroxyethoxy)-2,6-difluorobenzamide] | 1 to 16 (≈ 1.7 to 27.2 µM) |
| COc1ncc(-c2nc([C@@H](CO)Oc3ccc(F)c(C(N)=O)c3F)oc2Br)cn1 [Compound 257B, (R)-3-(1-(5-bromo-4-(2-methoxypyrimidin-5-yl)oxazol-2-yl)-2-hydroxyethoxy)-2,6-difluorobenzamide] | > 16 |
| NC(=O)c1c(F)ccc(OC(CO)c2csc(-c3ccc(Cl)cc3)n2)c1F (stereo not shown) [Compound 258, 3-(1-(2-(4-chlorophenyl)thiazol-4-yl)-2-hydroxyethoxy)-2,6-difluorobenzamide] | 1 to 16 (≈ 2.43 to 38.9 µM) |
| COc1ccc(-c2csc(C(CO)Oc3ccc(F)c(C(N)=O)c3F)n2)cc1 (stereo not shown) [Compound 259, 2,6-difluoro-3-(2-hydroxy-1-(4-(4-methoxyphenyl)thiazol-2-yl)ethoxy)benzamide] | 1 to 16 (≈ 2.46 to 39.4 µM) |
| COc1ccc(-c2csc(C(CO)Oc3ccc(F)c(C(N)=O)c3F)n2)nc1 (stereo not shown) [Compound 260, 2,6-difluoro-3-(2-hydroxy-1-(4-(5-methoxypyridin-2-yl)thiazol-2-yl)ethoxy)benzamide] | 1 to 16 (≈ 2.45 to 39.3 µM) |
| COc1cnc(-c2csc(C(CO)Oc3ccc(F)c(C(N)=O)c3F)n2)cn1 (stereo not shown) [Compound 261, 2,6-difluoro-3-(2-hydroxy-1-(4-(5-methoxypyrazin-2-yl)thiazol-2-yl)ethoxy)benzamide] | 1 to 16 (≈ 2.45 to 39.2 µM) |
| COc1ccc(CCc2csc(C(CO)Oc3ccc(F)c(C(N)=O)c3F)n2)cc1 (stereo not shown) [Compound 262, 2,6-difluoro-3-(2-hydroxy-1-(4-(4-methoxyphenethyl)thiazol-2-yl)ethoxy)benzamide] | 1 to 16 (≈ 2.3 to 36.8 µM) |
